This is an account of results in US5776903A, “Peptide derivatives usable as zinc endopeptidase 24-15 inhibitors” (Commissariat A l'Energie Atomique, priority 1995, dated 1998).

The target of one assay is endopeptidase 24-16 (Homo sapiens, UniProt Q9BYT8). The assay can be described thus: Inhibition of neurotensin degradation by purified endopeptidase 24-16 (HPLC), inhibition constant Ki. The settings on record: neurotensin 20 μmole/l, 1 hour at 30° C., tris-HCl pH 7.5. The format is biochemical. The method, then: This example studies the inhibiting effect of the peptides of the invention with respect to endopeptidase 24-16.
To this end, incubation takes place for 1 hour at 30° C. of 2 nmole (20 μmole/l) of neurotensin, which is a known endopeptidase 24-16 substrate with 8 μg of endopeptidase 24-16 purified in a final volume of 100 μl of tris-HCl buffer, 50 mM, pH 7.5, in the absence of peptide (control) or in the presence of the peptide tested at concentrations from 10^-11 to 10^-7 mole/l. After 1 hour of incubation analysis takes place of the solutions by HPLC and the inhibition constant Ki of the tested peptide is determined.

The next assay addresses endopeptidase 24-15 (Rattus norvegicus, UniProt P24155). Put plainly: Inhibition of neurotensin degradation by purified endopeptidase 24-15 (HPLC), inhibition constant Ki. The settings on record: for SELECTIVITY (ratio Ki24-16 /Ki24-15): selectivity relative to endopeptidase 24-16.
Assay [1] addresses endopeptidase 24-15 of the rat (Rattus norvegicus, UniProt P24155). The settings on record: as described by Dando et al; read-out: inhibition constant Ki with respect to endopeptidase 24-15 of the rat; cited from earlier work.

For orientation: Ki means a measure of affinity in units of concentration, obtained from inhibition or displacement.

endopeptidase 24-15, sequence (P24155 whole entry): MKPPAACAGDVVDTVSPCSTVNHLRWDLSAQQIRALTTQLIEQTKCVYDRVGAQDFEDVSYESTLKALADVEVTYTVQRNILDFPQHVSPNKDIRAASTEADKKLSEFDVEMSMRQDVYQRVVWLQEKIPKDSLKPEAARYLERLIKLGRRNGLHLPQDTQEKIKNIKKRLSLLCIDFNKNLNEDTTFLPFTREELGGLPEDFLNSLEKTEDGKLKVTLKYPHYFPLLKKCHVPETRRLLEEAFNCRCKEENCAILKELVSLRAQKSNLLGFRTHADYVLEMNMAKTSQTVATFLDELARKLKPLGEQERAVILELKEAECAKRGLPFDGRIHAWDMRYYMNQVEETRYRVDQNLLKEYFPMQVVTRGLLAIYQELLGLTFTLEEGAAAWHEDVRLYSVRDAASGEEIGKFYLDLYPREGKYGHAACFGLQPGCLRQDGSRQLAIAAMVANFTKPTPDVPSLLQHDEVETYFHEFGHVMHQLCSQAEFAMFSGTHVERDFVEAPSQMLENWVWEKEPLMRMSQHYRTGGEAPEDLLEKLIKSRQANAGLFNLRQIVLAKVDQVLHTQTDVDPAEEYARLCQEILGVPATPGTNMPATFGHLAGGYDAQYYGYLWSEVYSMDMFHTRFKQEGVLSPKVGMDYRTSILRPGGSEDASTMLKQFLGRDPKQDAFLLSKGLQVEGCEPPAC
endopeptidase 24-16, sequence (Q9BYT8 38-704): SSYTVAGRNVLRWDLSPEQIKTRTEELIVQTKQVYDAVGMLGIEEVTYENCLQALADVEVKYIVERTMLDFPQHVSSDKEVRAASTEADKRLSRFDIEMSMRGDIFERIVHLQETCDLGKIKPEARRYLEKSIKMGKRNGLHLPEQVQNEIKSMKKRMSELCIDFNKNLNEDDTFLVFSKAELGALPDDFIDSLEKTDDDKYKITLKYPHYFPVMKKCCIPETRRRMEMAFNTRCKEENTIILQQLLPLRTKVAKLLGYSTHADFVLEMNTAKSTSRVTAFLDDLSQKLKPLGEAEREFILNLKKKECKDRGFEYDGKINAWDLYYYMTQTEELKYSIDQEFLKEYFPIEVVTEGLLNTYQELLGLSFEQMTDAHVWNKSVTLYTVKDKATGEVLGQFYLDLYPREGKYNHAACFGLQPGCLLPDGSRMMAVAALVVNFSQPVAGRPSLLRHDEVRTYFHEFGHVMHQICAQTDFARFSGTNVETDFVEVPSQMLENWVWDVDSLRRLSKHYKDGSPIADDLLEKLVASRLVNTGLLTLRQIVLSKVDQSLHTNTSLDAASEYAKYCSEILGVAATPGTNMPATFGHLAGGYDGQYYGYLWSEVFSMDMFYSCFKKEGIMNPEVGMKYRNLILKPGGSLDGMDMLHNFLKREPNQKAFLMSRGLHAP
endopeptidase 24-15 of the rat, sequence (P24155 whole entry): as the sequence (P24155 whole entry) above

`CC(CP(=O)(O)C(Cc1ccccc1)NC(=O)OCc1ccccc1)C(=O)N[C@@H](CCCNC(=N)N)C(=O)N[C@@H](Cc1ccccc1)C(=O)O` (mixture of isomers) [compound 43, Z--Phe .PSI. (PO2 CH2)Ala--Arg--Phe]: the Ki is 527 nM at endopeptidase 24-16 and 0.158 nM on endopeptidase 24-15. For the same compound, at endopeptidase 24-15 (extrapolated from Ki of the mixture of 4 diastereoisomers), the “Ki expected for one of the diastereoisomers of the mixture” value is reported as “approximately 40 pM”. The “affinity difference / power factor relative to Cpp-Ala-Pro-Phe-pAb” value at endopeptidase 24-15 (for the expected single diastereoisomer versus known inhibitor (Ki 7 nM)) is “approximately 175”. For the same compound, the “SELECTIVITY (ratio Ki24-16 /Ki24-15)” value at endopeptidase 24-15 is on record as 3335.

In turn, `CC(C)CC(CP(=O)(O)C(Cc1ccccc1)NC(=O)OCc1ccccc1)C(=O)N[C@@H](CCCNC(=N)N)C(=O)N[C@@H](Cc1ccccc1)C(=O)O` (mixture of isomers) [compound 44, Z--Phe .PSI. (PO2 CH2)Leu--Arg--Phe] had a Ki at endopeptidase 24-16 of 2290 nM. At endopeptidase 24-15, the affinity, expressed as Ki, was 14 nM and the “SELECTIVITY (ratio Ki24-16 /Ki24-15)” value came to 164.

With Cpp-Ala-Pro-Phe-pAb, the inhibition constant (Ki) in assay [1] was 7 nM.
